Paper PMC11992225, “Antibacterial compounds against non-growing and intracellular bacteria” (npj Antimicrobials and Resistance, 2025)
Where “and” joins values, the source holds several entries; their conditions need not be identical. Equal values may be shown once.

Assays:
non-growing UPEC CFT073 = assay: Dose-dependent killing analysis (CFU spot-plating) of stationary-phase UPEC; format: cell-based, Escherichia coli; conditions: for log10(CFU/ml) after treatment: individual replicates
In short: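 Killing assessed by CFU counts: overnight 37 °C LB agar spot plates (10 μl drops of 10-fold PBS dilutions) scored at the lowest dilution with distinct colonies. Samples were compound-treated non-growing UPEC CFT073, 200 μl per well. Performed as three biological replicates.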

[1] = tested on: non-growing S. aureus DSM2569; assay: Dose-dependent killing analysis (CFU spot-plating) of stationary-phase S. aureus; format: cell-based, Staphylococcus aureus; conditions: S. aureus; for log10(CFU/ml) after treatment: individual replicates; for Killing: average Δlog10(CFU/ml): vs 9,097 before treatment
In short: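 Survival was scored as CFU after overnight growth at 37 °C on LB agar, using spots from 10-fold PBS dilutions of treated cultures. Non-growing S. aureus DSM2569 had been exposed to compound for 24 h in 1:4 CA-MHB, pH 7.4. Three biological replicates were run.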

[2] = tested on: non-growing P. aeruginosa DSM1117; assay: Dose-dependent killing analysis (CFU spot-plating) of stationary-phase P. aeruginosa; format: cell-based, Pseudomonas aeruginosa; conditions: for log10(CFU/ml) after treatment / killing, average Δlog10(CFU/ml) / Killing: average Δlog10(CFU/ml) / log10(CFU/ml) after treatment, single replicates: P. aeruginosa; for log10(CFU/ml) after treatment: individual replicates; for killing, average Δlog10(CFU/ml): vs CFU before treatment; for reduction of bacterial counts, non-growing P. aeruginosa: 1:4 CA-MHB pH 7.4, 24 h treatment; for Killing: average Δlog10(CFU/ml): vs 8.887 before treatment
In short: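 Viability by CFU: samples serially diluted 10-fold in PBS, spotted on LB agar, grown overnight at 37 °C, and colonies counted at the lowest resolvable dilution. Non-growing P. aeruginosa DSM1117 had been dosed for 24 h in 1:4 CA-MHB (pH 7.4); three biological replicates.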

[3] = E. coli in 1:4 CA-MHB (pH 7.4), concentration 0.25
[4] = E. coli in 1:4 CA-MHB (pH 7.4), concentration 0.5
[5] = E. coli in 1:4 CA-MHB (pH 7.4), concentration 1
[6] = E. coli in 1:4 CA-MHB (pH 7.4), concentration 2.5
[7] = E. coli in 1:4 CA-MHB (pH 7.4), concentration 5
[8] = E. coli in 1:4 CA-MHB (pH 7.4), concentration 10

## N[C@@H]1CCCCN(c2c(F)cc3c(=O)c(C(=O)O)cn(C4CC4)c3c2Cl)C1 [Besifloxacin]
non-growing UPEC CFT073; [3]
  log10(CFU/ml) after treatment: 8.778 log10(CFU/ml) and 8.699 log10(CFU/ml) and 8.477 log10(CFU/ml)
non-growing UPEC CFT073; [4]
  log10(CFU/ml) after treatment: 8.491 log10(CFU/ml) and 8.204 log10(CFU/ml) (2×)
non-growing UPEC CFT073; [5]
  log10(CFU/ml) after treatment: 7.568 log10(CFU/ml) and 7.322 log10(CFU/ml) and 7.301 log10(CFU/ml)
non-growing UPEC CFT073; [6]
  log10(CFU/ml) after treatment: 6.462 log10(CFU/ml) and 6.204 log10(CFU/ml) and 6.342 log10(CFU/ml)
non-growing UPEC CFT073; [7]
  log10(CFU/ml) after treatment: 6.398 log10(CFU/ml) and 5.342 log10(CFU/ml) and 5.362 log10(CFU/ml)
non-growing UPEC CFT073; [8]
  log10(CFU/ml) after treatment: 6.114 log10(CFU/ml) and 5.230 log10(CFU/ml) and 5.000 log10(CFU/ml)
[1]; concentration 0.1
  log10(CFU/ml) after treatment: 9.061 log10(CFU/ml) and 9.079 log10(CFU/ml) and 8.740 log10(CFU/ml)
[1]; concentration 0.5
  log10(CFU/ml) after treatment: 8.398 log10(CFU/ml) and 8.431 log10(CFU/ml) and 8.104 log10(CFU/ml)
[1]; concentration 2.5
  log10(CFU/ml) after treatment: 7.196 log10(CFU/ml) and 7.716 log10(CFU/ml) and 6.826 log10(CFU/ml)
[1]; concentration 10
  log10(CFU/ml) after treatment: 7.033 log10(CFU/ml) and 7.000 log10(CFU/ml) and 6.100 log10(CFU/ml)
[2]; concentration 0.1
  log10(CFU/ml) after treatment: 8.000 log10(CFU/ml) and 8.602 log10(CFU/ml) and 8.204 log10(CFU/ml)
  killing, average Δlog10(CFU/ml): 0.619 log10(CFU/ml)
[2]; concentration 0.5
  log10(CFU/ml) after treatment: 7.845 log10(CFU/ml) and 7.699 log10(CFU/ml) (2×)
  killing, average Δlog10(CFU/ml): 1.140 log10(CFU/ml)
[2]; concentration 2.5
  log10(CFU/ml) after treatment: 5.000 log10(CFU/ml) (2×) and 4.699 log10(CFU/ml)
  killing, average Δlog10(CFU/ml): 3.988 log10(CFU/ml)
[2]; concentration 10
  log10(CFU/ml) after treatment: =<4 log10(CFU/ml) (2×) and 4.301 log10(CFU/ml)
  killing, average Δlog10(CFU/ml): 4.787 log10(CFU/ml)
[2]; at 2.5 µM
  reduction of bacterial counts, non-growing P. aeruginosa: more than four

## CO[C@H]1/C=C/O[C@@]2(C)Oc3c(C)c(O)c4c(c3C2=O)C2=NC3(CCN(CC(C)C)CC3)NC2=C(NC(=O)/C(C)=C\C=C\[C@H](C)[C@H](O)[C@@H](C)[C@@H](O)[C@@H](C)[C@H](OC(C)=O)[C@@H]1C)C4=O [Rifabutin]
non-growing UPEC CFT073; 24 h treatment of stationary phase culture
  bactericidal activity against non-growing UPEC (CFU counting): did not kill
non-growing UPEC CFT073; [3]
  log10(CFU/ml) after treatment, single replicates: 9.000 log10(CFU/ml) (2×) and 8.699 log10(CFU/ml)
non-growing UPEC CFT073; E. coli in 1:4 CA-MHB (pH 7.4), concentration 0.25, vs 8.977 before treatment
  Killing: average Δlog10(CFU/ml): 0.078 log10(CFU/ml)
non-growing UPEC CFT073; [4]
  log10(CFU/ml) after treatment, single replicates: 9.230 log10(CFU/ml) and 8.532 log10(CFU/ml) and 8.699 log10(CFU/ml)
non-growing UPEC CFT073; E. coli in 1:4 CA-MHB (pH 7.4), concentration 0.5, vs 8.977 before treatment
  Killing: average Δlog10(CFU/ml): 0.157 log10(CFU/ml)
non-growing UPEC CFT073; [5]
  log10(CFU/ml) after treatment, single replicates: 9.322 log10(CFU/ml) and 8.477 log10(CFU/ml) and 8.301 log10(CFU/ml)
non-growing UPEC CFT073; E. coli in 1:4 CA-MHB (pH 7.4), concentration 1, vs 8.977 before treatment
  Killing: average Δlog10(CFU/ml): 0.277 log10(CFU/ml)
non-growing UPEC CFT073; [6]
  log10(CFU/ml) after treatment, single replicates: 8.699 log10(CFU/ml) and 8.505 log10(CFU/ml) and 8.000 log10(CFU/ml)
non-growing UPEC CFT073; E. coli in 1:4 CA-MHB (pH 7.4), concentration 2.5, vs 8.977 before treatment
  Killing: average Δlog10(CFU/ml): 0.576 log10(CFU/ml)
non-growing UPEC CFT073; [7]
  log10(CFU/ml) after treatment, single replicates: 9.041 log10(CFU/ml) and 8.447 log10(CFU/ml) and 9.000 log10(CFU/ml)
non-growing UPEC CFT073; E. coli in 1:4 CA-MHB (pH 7.4), concentration 5, vs 8.977 before treatment
  Killing: average Δlog10(CFU/ml): 0.148 log10(CFU/ml)
non-growing UPEC CFT073; [8]
  log10(CFU/ml) after treatment, single replicates: 8.903 log10(CFU/ml) and 8.176 log10(CFU/ml) and 8.415 log10(CFU/ml)
non-growing UPEC CFT073; E. coli in 1:4 CA-MHB (pH 7.4), concentration 10, vs 8.977 before treatment
  Killing: average Δlog10(CFU/ml): 0.479 log10(CFU/ml)
non-growing UPEC CFT073; E. coli in LPM (pH 5.5), concentration 0.25
  log10(CFU/ml) after treatment, single replicates: 6.954 log10(CFU/ml) and 6.415 log10(CFU/ml) and 7.954 log10(CFU/ml)
non-growing UPEC CFT073; E. coli in LPM (pH 5.5), concentration 0.25, vs 7.350 before treatment
  Killing: average Δlog10(CFU/ml): 0.243 log10(CFU/ml)
non-growing UPEC CFT073; E. coli in LPM (pH 5.5), concentration 0.5
  log10(CFU/ml) after treatment, single replicates: 7.000 log10(CFU/ml) and 6.778 log10(CFU/ml) and 7.663 log10(CFU/ml)
non-growing UPEC CFT073; E. coli in LPM (pH 5.5), concentration 0.5, vs 7.350 before treatment
  Killing: average Δlog10(CFU/ml): 0.203 log10(CFU/ml)
non-growing UPEC CFT073; E. coli in LPM (pH 5.5), concentration 1
  log10(CFU/ml) after treatment, single replicates: 6.954 log10(CFU/ml) and 6.398 log10(CFU/ml) and 7.681 log10(CFU/ml)
non-growing UPEC CFT073; E. coli in LPM (pH 5.5), concentration 1, vs 7.350 before treatment
  Killing: average Δlog10(CFU/ml): 0.339 log10(CFU/ml)
non-growing UPEC CFT073; E. coli in LPM (pH 5.5), concentration 2.5
  log10(CFU/ml) after treatment, single replicates: 7.322 log10(CFU/ml) and 6.845 log10(CFU/ml) and 7.623 log10(CFU/ml)
non-growing UPEC CFT073; E. coli in LPM (pH 5.5), concentration 2.5, vs 7.350 before treatment
  Killing: average Δlog10(CFU/ml): 0.087 log10(CFU/ml)
non-growing UPEC CFT073; E. coli in LPM (pH 5.5), concentration 5
  log10(CFU/ml) after treatment, single replicates: 6.477 log10(CFU/ml) and 6.845 log10(CFU/ml) and 7.462 log10(CFU/ml)
non-growing UPEC CFT073; E. coli in LPM (pH 5.5), concentration 5, vs 7.350 before treatment
  Killing: average Δlog10(CFU/ml): 0.422 log10(CFU/ml)
non-growing UPEC CFT073; E. coli in LPM (pH 5.5), concentration 10
  log10(CFU/ml) after treatment, single replicates: 7.114 log10(CFU/ml) and 6.954 log10(CFU/ml) and 7.633 log10(CFU/ml)
non-growing UPEC CFT073; E. coli in LPM (pH 5.5), concentration 10, vs 7.350 before treatment
  Killing: average Δlog10(CFU/ml): 0.116 log10(CFU/ml)
[1]; concentration 0.1
  log10(CFU/ml) after treatment, single replicates: 8.833 log10(CFU/ml) and 8.875 log10(CFU/ml) and 8.763 log10(CFU/ml)
  Killing: average Δlog10(CFU/ml): 0.273 log10(CFU/ml)
[1]; concentration 0.5
  log10(CFU/ml) after treatment, single replicates: 8.869 log10(CFU/ml) and 8.996 log10(CFU/ml) and 8.079 log10(CFU/ml)
  Killing: average Δlog10(CFU/ml): 0.449 log10(CFU/ml)
[1]; concentration 2.5
  log10(CFU/ml) after treatment, single replicates: 8.763 log10(CFU/ml) and 8.785 log10(CFU/ml) and 8.643 log10(CFU/ml)
  Killing: average Δlog10(CFU/ml): 0.366 log10(CFU/ml)
[1]; concentration 10
  log10(CFU/ml) after treatment, single replicates: 8.778 log10(CFU/ml) and 8.806 log10(CFU/ml) and 8.756 log10(CFU/ml)
  Killing: average Δlog10(CFU/ml): 0.317 log10(CFU/ml)
[2]; concentration 0.1
  Killing: average Δlog10(CFU/ml): 0.484 log10(CFU/ml)
[2]; concentration 0.25
  log10(CFU/ml) after treatment, single replicates: 8.477 log10(CFU/ml) and 8.954 log10(CFU/ml) and 7.778 log10(CFU/ml)
[2]; concentration 0.5
  Killing: average Δlog10(CFU/ml): 0.158 log10(CFU/ml)
[2]; concentration 2.5
  Killing: average Δlog10(CFU/ml): 4.469 log10(CFU/ml)
[2]; printed on the line of concentration 1
  log10(CFU/ml) after treatment, single replicates: 8.301 log10(CFU/ml) and 9.041 log10(CFU/ml) and 8.845 log10(CFU/ml)
[2]; printed on the line of concentration 5
  log10(CFU/ml) after treatment, single replicates: 4.477 log10(CFU/ml) and 4.778 log10(CFU/ml) and =<4 log10(CFU/ml)
[2]; at 2.5 µM
  reduction of bacterial counts, non-growing P. aeruginosa: more than four
[2]; at 2.5 µM, 24 h treatment
  killing of non-growing P. aeruginosa: > 4 log10
